Data: patent publication US20240148821A1, “PHARMACEUTICAL USE OF CYCLIC PEPTIDE COMPOUND” (CHUGAI SEIYAKU KABUSHIKI KAISHA, priority 2021, published 2024)
Bridge positions count the residues as written; N and C are the ends. Square brackets hold non-standard residues; d marks the D form. Peptide text beside a SMILES is read from it. * marks the point of attachment. hPhe(3-Cl-4-CF3) = N[C@@H](CCc1ccc(C(F)(F)F)c(Cl)c1)C(=O)O; hPhe(3-F,4-CF3) = N[C@@H](CCc1ccc(C(F)(F)F)c(F)c1)C(=O)O; hPhe(4-CF3) = N[C@@H](CCc1ccc(C(F)(F)F)cc1)C(=O)O; NMePhe(4-Cl) = CN[C@@H](Cc1ccc(Cl)cc1)C(=O)O; NMePhe(4-Me) = CN[C@@H](Cc1ccc(C)cc1)C(=O)O; NMeGly(cPent) = CN[C@H](C(=O)O)C1CCCC1; NMeCha = CN[C@@H](CC1CCCCC1)C(=O)O; NMeAhp(2) = CCCCC[C@H](NC)C(=O)O; NMeChg = CN[C@H](C(=O)O)C1CCCCC1; NMeI = CC[C@H](C)[C@H](NC)C(=O)O; NMeD = CN[C@@H](CC(=O)O)C(=O)O; NMeL = CN[C@@H](CC(C)C)C(=O)O; NMeV = CN[C@H](C(=O)O)C(C)C; d(β3hA) = C[C@@H](N)CC(=O)O; Azetidin(1-yl) = C1CN(*)C1; NMeS = CN[C@@H](CO)C(=O)O; Pip = O=C(O)[C@@H]1CCCCN1; Morpholide = C1CN(*)CCO1; NMeA = CN[C@@H](C)C(=O)O; Piperidide = C1CCN(*)CC1; Ac5c = NC1(C(=O)O)CCCC1; Aze = O=C(O)[C@@H]1CCN1; NBuGly = CCCCNCC(=O)O; Aib = CC(C)(N)C(=O)O; Sar = CNCC(=O)O; Propyl = CCC*

biological target: protein-protein interaction between Kras and SOS1 (biotin-tagged human Kras loaded with GDP, His-tagged human SOS1) (Homo sapiens (Human), UniProt P01116, G12D); test: Protein-protein interaction inhibition between Kras and SOS1 (KrasG12D-SOS PPI) using AlphaScreen; assay type: biochemical; details: AlphaScreen; biotin-tagged human Kras loaded with GDP, His-tagged human SOS1; read-out: KRAS G12D-SOS PPI IC50;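 further: kras produced in E. coli, Ni-coupled donor beads and streptavidin acceptor beads, excitation 680 nm with emission detected at 520–620 nm via singlet oxygen transfer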

SMILES	IC50 [nM]
CCCCN1CC(=O)N(C)[C@@H]([C@@H](C)CC)C(=O)N(C)[C@H](C(=O)N(C)C)CC(=O)N(C)[C@@H](CC(C)C)C(=O)N[C@@H]([C@@H](C)CC)C(=O)N(C)[C@@H](C)C(=O)N2CC[C@H]2C(=O)N(C)[C@@H](Cc2ccc(C)cc2)C(=O)N(C)CC(=O)N[C@@H](CCc2ccc(C(F)(F)F)c(Cl)c2)C(=O)N2CCC[C@H]2C1=O [Compound 215] ([NMeL]I[NMeA][Aze][NMePhe(4-Me)][Sar][hPhe(3-Cl-4-CF3)]P[NBuGly][NMeI][NMeD]-NMe2; lactam N-11)	29
CC[C@H](C)[C@@H]1NC(=O)[C@H](C)N(C)C(=O)C[C@@H](C)NC(=O)[C@H](CC(C)C)N(C)C(=O)C(C)(C)NC(=O)[C@H](CC(C)C)N(C)C(=O)[C@H](CCc2ccc(C(F)(F)F)cc2)NC(=O)CN(C)C(=O)[C@H](CC2CCCCC2)N(C)C(=O)CN(C)C(=O)CN(C)C1=O [Compound 219] (cyclo([Aib][NMeL][d(β3hA)][NMeA]I[Sar][Sar][NMeCha][Sar][hPhe(4-CF3)][NMeL]))	73
CC[C@H](C)[C@@H]1NC(=O)[C@H](C2CCCC2)N(C)C(=O)C[C@@H](C(=O)N2CCCCC2)N(C)C(=O)[C@H](C(C)C)N(C)C(=O)C2(CCCC2)NC(=O)[C@@H]2CCCN2C(=O)[C@H](CCc2ccc(C(F)(F)F)c(Cl)c2)NC(=O)CN(C)C(=O)[C@H](CC2CCCCC2)N(C)C(=O)[C@@H]2CCN2C(=O)[C@H](C)N(C)C1=O [Compound 225] ([NMeGly(cPent)]I[NMeA][Aze][NMeCha][Sar][hPhe(3-Cl-4-CF3)]P[Ac5c][NMeV][NMeD]-Piperidide; lactam N-11)	15
CC[C@H](C)[C@@H]1NC(=O)[C@@H]2CCCCN2C(=O)C[C@@H](C)NC(=O)[C@H](CC(C)C)N(C)C(=O)C2(CCCC2)NC(=O)[C@@H]2CCCN2C(=O)[C@H](CCc2ccc(C(F)(F)F)cc2)NC(=O)CN(C)C(=O)[C@H](Cc2ccc(Cl)cc2)N(C)C(=O)CN(C)C(=O)CN(C)C1=O [Compound 227] (cyclo([Ac5c][NMeL][d(β3hA)][Pip]I[Sar][Sar][NMePhe(4-Cl)][Sar][hPhe(4-CF3)]P))	82
CCCOC[C@H]1C(=O)N(C)CC(=O)N[C@@H](CCc2ccc(C(F)(F)F)c(F)c2)C(=O)N2CCC[C@H]2C(=O)NC2(CCCC2)C(=O)N(C)[C@@H]([C@@H](C)CC)C(=O)N(C)[C@H](C(=O)N2CCCCC2)CC(=O)N(C)[C@@H](CC(C)C)C(=O)N[C@@H]([C@@H](C)CC)C(=O)N(C)[C@@H](C)C(=O)N2CC[C@H]2C(=O)N1C [Compound 236] ([NMeL]I[NMeA][Aze][NMeS](Propyl)[Sar][hPhe(3-F,4-CF3)]P[Ac5c][NMeI][NMeD]-Piperidide; lactam N-11)	8.5
CC[C@H](C)[C@@H]1NC(=O)[C@H](CC(C)C)N(C)C(=O)C[C@@H](C(=O)N2CCCCC2)N(C)C(=O)[C@H](C2CCCCC2)N(C)C(=O)C2(CCCC2)NC(=O)[C@@H]2CCCN2C(=O)[C@H](CCc2ccc(C(F)(F)F)c(Cl)c2)NC(=O)CN(C)C(=O)[C@H](CC2CCCCC2)N(C)C(=O)[C@@H]2CCN2C(=O)[C@H](C)N(C)C1=O [Compound 249] ([NMeL]I[NMeA][Aze][NMeCha][Sar][hPhe(3-Cl-4-CF3)]P[Ac5c][NMeChg][NMeD]-Piperidide; lactam N-11)	1.6
CC[C@H](C)[C@@H]1NC(=O)[C@H](CC(C)C)N(C)C(=O)C[C@@H](C(=O)N2CCC2)N(C)C(=O)[C@H](C(C)C)N(C)C(=O)C2(CCCC2)NC(=O)[C@@H]2CCCN2C(=O)[C@H](CCc2ccc(C(F)(F)F)c(Cl)c2)NC(=O)CN(C)C(=O)[C@H](CC2CCCCC2)N(C)C(=O)[C@@H]2CCN2C(=O)[C@H](C)N(C)C1=O [Compound 256] ([NMeL]I[NMeA][Aze][NMeCha][Sar][hPhe(3-Cl-4-CF3)]P[Ac5c][NMeV][NMeD]-{Azetidin(1-yl)}; lactam N-11)	0.98
CC[C@H](C)[C@@H]1NC(=O)[C@H](CC(C)C)N(C)C(=O)C[C@@H](C)NC(=O)[C@H](CC(C)C)N(C)C(=O)C(C)(C)NC(=O)[C@H](CC(C)C)N(C)C(=O)[C@H](CCc2ccc(C(F)(F)F)cc2)NC(=O)CN(C)C(=O)[C@H](Cc2ccc(Cl)cc2)N(C)C(=O)CN(C)C(=O)CN(C)C1=O [Compound 261] (cyclo([Aib][NMeL][d(β3hA)][NMeL]I[Sar][Sar][NMePhe(4-Cl)][Sar][hPhe(4-CF3)][NMeL]))	52
CCCCC[C@H]1C(=O)N[C@@H]([C@@H](C)CC)C(=O)N[C@@H](C)C(=O)N2CC[C@H]2C(=O)N(C)[C@@H](CC2CCCCC2)C(=O)N(C)CC(=O)N[C@@H](CCc2ccc(C(F)(F)F)c(Cl)c2)C(=O)N2CCC[C@H]2C(=O)NC2(CCCC2)C(=O)N(C)[C@@H](C2CCCC2)C(=O)N(C)[C@H](C(=O)N2CCOCC2)CC(=O)N1C [Compound 263] ([NMeAhp(2)]IA[Aze][NMeCha][Sar][hPhe(3-Cl-4-CF3)]P[Ac5c][NMeGly(cPent)][NMeD]-Morpholide; lactam N-11)	2.9
